18 compounds from US12239643B2, “Therapeutic agent for inflammatory diseases, autoimmune diseases, fibrotic diseases, and cancer diseases” (MEIJI SEIKA PHARMA CO., LTD., priority 2018, dated 2025) can be followed below.

One series deals with PDE4. Description: Evaluation of PDE4 inhibitory activity, scintillation proximity assay. To be noted: scintillation proximity assay; read-out: PDE4 Inhibitory Activity (Evaluation 1; concentration for the inhibition rate of 50%). It is filed as biochemical. In short, it runs like this:
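SPA with [2,8-3H]-cAMP and diluted PDE4 enzyme preparation in 50 mM Tris-HCl pH 7.4, 8.3 mM MgCl2, 1.7 mM EGTA, 3 mg/mL BSA, 120 min at room temperature. Product captured on ZnSO4-containing YSi-SPA beads, scintillation counted; IC50 from inhibition curves vs DMSO control and no-enzyme blank.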

The nature of series [1]: Hepatic metabolic stability (rat liver microsome method). It is filed as in vitro ADME. The note with it: rat liver microsomes 0.5 mg/mL, test substance 1 μM, NADPH 1 mM, 37° C., 30 minutes. As for the experimental part: Metabolic stability in rat liver microsomes was evaluated by the following method. First, in 100 mM of potassium phosphate buffer solution (pH 7.4), liver microsomes (concentration at reaction: 0.5 mg/mL) and the test substance (concentration at reaction: 1 μM) were preincubated at 37° C. Five minutes later, 100 mM of potassium phosphate buffer (pH 7.4) solution of NADPH (concentration at reaction: 1 mM) was mixed thereto to start the reaction. After a predetermined time passed, acetonitrile was mixed to the reaction mixture to stop the reaction. Here, the reaction time was 0 and 30 minutes, and drug concentration measurement was performed for each time period using LC-MS. The % remaining value of the test compound was calculated from the value for 0 minutes and the value for 30 minutes, using the calculation formula below: % Remaining=(Value for 30 Minutes/Value for 0 Minutes)×100
The results of measuring the rat liver microsome metabolic Stability (% remaining for 30-minute reaction) for the test compound by the above method were evaluated in accordance with the following evaluated basis; A: a % remaining rate of 75% or more, B: 60% or more and less than 75%, C: 45% or more and less than 60%, and D: less than 45%.
(In general: Liver microsomes are vesicles of endoplasmic reticulum, rich in cytochrome P450 enzymes.)

Turning to `CC(O)(CO)C(F)(F)Oc1ccc(-c2nccs2)c2oc(N3CC4CC(C3)N4)nc12` (single isomer, unassigned) [Example 364, 3-((2-(3,6-Diazabicyclo[3.1.1]heptan-3-yl)-7-(thiazol-2-yl)benzo[d]oxazol-4-yl)oxy)-3,3-difluoro-2-methylpropane-1,2-diol], in the series with PDE4, the IC50 is < 100 nM. In addition, the “Residual ratio (% remaining for 30-minute reaction)” value in series [1] is reported as “A (A: a % remaining rate of 75% or more)”.

Turning to `O=C(c1ccc(-c2nccs2)c2oc(N3CC4CC(C3)N4)nc12)N1CCCC1` [Example 360, (2-(3,6-Diazabicyclo[3.1.1]heptan-3-yl)-7-(thiazol-2-yl)benzo[d]oxazol-4-yl) (pyrrolidin-1-yl)methanone], in the series on PDE4, the IC50 fell in the range of 100 to 1000 nM. Moreover, the “Residual ratio (% remaining for 30-minute reaction)” value in series [1] is listed as “A (A: a % remaining rate of 75% or more)”.

With `Cc1cc(C(F)(F)F)c(Oc2ccc(-c3nccs3)c3oc(N4CC5CC(C4)N5)nc23)nn1` [Example 340, 2-(3,6-Diazabicyclo[3.1.1]heptan-3-yl)-4-((6-methyl-4-(trifluoromethyl)pyridazin-3-yl)oxy)-7-(thiazol-2-yl)benzo[d]oxazole], the IC50 in the series on PDE4 was < 100 nM. The “Residual ratio (% remaining for 30-minute reaction)” value in series [1] is listed as “A (A: a % remaining rate of 75% or more)”.

Regarding `CC(O)(CO)C(F)(F)Oc1ccc(-c2nccs2)c2oc(N3CC4CC(C3)N4)nc12` (single isomer, unassigned) [Example 365, 3-((2-(3,6-Diazabicyclo[3.1.1]heptan-3-yl)-7-(thiazol-2-yl)benzo[d]oxazol-4-yl)oxy)-3,3-difluoro-2-methylpropane-1,2-diol], the IC50 with PDE4 was < 100 nM. In series [1], the “Residual ratio (% remaining for 30-minute reaction)” value was “A (A: a % remaining rate of 75% or more)”.

For `c1cnc(Oc2ccc(-c3nccs3)c3oc(N4CC5CC(C4)N5)nc23)cn1` [Example 339, 2-(3,6-Diazabicyclo[3.1.1]heptan-3-yl)-4-(pyrazin-2-yloxy)-7-(thiazol-2-yl)benzo[d]oxazole], the IC50 in the series on PDE4 is < 100 nM. In series [1], the “Residual ratio (% remaining for 30-minute reaction)” value is “B (B: 60% or more and less than 75%)”.

With `CC(O)C(F)(F)Oc1ccc(-c2nccs2)c2oc(N3CC4CC(C3)N4O)nc12` (single isomer, unassigned) [Example 373, 3-(4-(1,1-Difluoro-2-hydroxypropoxy)-7-(thiazol-2-yl)benzo[d]oxazol-2-yl)-3,6-diazabicyclo[3.1.1]heptan-6-ol], the IC50 with PDE4 is < 100 nM. The “Residual ratio (% remaining for 30-minute reaction)” value in series [1] is “B (B: 60% or more and less than 75%)”.

Take `OC1CC(Oc2ccc(-c3nccs3)c3oc(N4CC5CC(C4)N5)nc23)C1` (stereo not drawn) [Example 285, 3-((2-(3,6-Diazabicyclo[3.1.1]heptan-3-yl)-7-(thiazol-2-yl)benzo[d]oxazol-4-yl)oxy)cyclobutan-1-ol]: the IC50 in the series on PDE4 is < 100 nM. In addition, the “Residual ratio (% remaining for 30-minute reaction)” value in series [1] is recorded as “A (A: a % remaining rate of 75% or more)”.

For the compound `NC(=O)c1ccc(-c2nccs2)c2oc(N3CC4CC(C3)N4)nc12` [Example 354, 2-(3,6-Diazabicyclo[3.1.1]heptan-3-yl)-7-(thiazol-2-yl)benzo[d]oxazole-4-carboxamide], the IC50 with PDE4 was < 100 nM. The “Residual ratio (% remaining for 30-minute reaction)” value in series [1] is “A (A: a % remaining rate of 75% or more)”.

For `CC(C)(O)C(F)(F)Oc1c(Br)cc(-c2nccs2)c2oc(N3CC4CC(C3)N4)nc12` [Example 399, 1-((2-(3,6-Diazabicyclo[3.1.1]heptan-3-yl)-5-bromo-7-(thiazol-2-yl)benzo[d]oxazol-4-yl)oxy)-1,1-difluoro-2-methylpropan-2-ol], the IC50 in the series with PDE4 is < 100 nM. Also, the “Residual ratio (% remaining for 30-minute reaction)” value in series [1] was “B (B: 60% or more and less than 75%)”.

`O=C(NC1CC1)c1ccc(-c2nccs2)c2oc(N3CC4CC(C3)N4)nc12` [Example 357, 2-(3,6-Diazabicyclo[3.1.1]heptan-3-yl)-N-cyclopropyl-7-(thiazol-2-yl)benzo[d]oxazole-4-carboxamide]: the IC50 in the series on PDE4 was < 100 nM. Further, the “Residual ratio (% remaining for 30-minute reaction)” value in series [1] is listed as “A (A: a % remaining rate of 75% or more)”.

On to `CC(C)(O)C(F)(F)Oc1c(Cl)cc(-c2nccs2)c2oc(N3CC4CC(C3)N4)nc12` [Example 400, 1-((2-(3,6-Diazabicyclo[3.1.1]heptan-3-yl)-5-chloro-7-(thiazol-2-yl)benzo[d]oxazol-4-yl)oxy)-1,1-difluoro-2-methylpropan-2-ol], for which the IC50 with PDE4 is < 100 nM. Moreover, in series [1], the “Residual ratio (% remaining for 30-minute reaction)” value is “B (B: 60% or more and less than 75%)”.

Consider `COCC(F)(F)Oc1ccc(-c2nccs2)c2oc(N3CC4CC(C3)N4)nc12` [Example 392, 2-(3,6-Diazabicyclo[3.1.1]heptan-3-yl)-4-(1,1-difluoro-2-methoxyethoxy)-7-(thiazol-2-yl)benzo[d]oxazole], for which, in the series with PDE4, the IC50 was < 100 nM. Moreover, in series [1], the “Residual ratio (% remaining for 30-minute reaction)” value is “B (B: 60% or more and less than 75%)”.

`c1csc(-c2ccc(O[C@@H]3CCOC3)c3nc(N4CC5CC(C4)N5)oc23)n1` [Example 324, 2-(3,6-Diazabicyclo[3.1.1]heptan-3-yl)-4-(((R)-tetrahydrofuran-3-yl)oxy)-7-(thiazol-2-yl)benzo[d]oxazole]: the IC50 in the series with PDE4 was < 100 nM. The “Residual ratio (% remaining for 30-minute reaction)” value in series [1] is “A (A: a % remaining rate of 75% or more)”.

Turning to `CC(O)C(F)(F)Oc1ccc(-c2nccs2)c2oc(N3CC4CC(C3)N4O)nc12` (single isomer, unassigned) [Example 372, 3-(4-(1,1-Difluoro-2-hydroxypropoxy)-7-(thiazol-2-yl)benzo[d]oxazol-2-yl)-3,6-diazabicyclo[3.1.1]heptan-6-ol], the IC50 in the series with PDE4 is < 100 nM. In addition, the “Residual ratio (% remaining for 30-minute reaction)” value in series [1] was “B (B: 60% or more and less than 75%)”.

As to `C[C@@H](O)COc1ccc(-c2nccs2)c2oc(N3CC4CC(C3)N4)nc12` [Example 259, (2R)-1-((2-(3,6-diazabicyclo[3.1.1]heptan-3-yl)-7-(thiazol-2-yl)benzo[d]oxazol-4-yl)oxy)propan-2-ol], the IC50 with PDE4 is < 100 nM. Further, the “Residual ratio (% remaining for 30-minute reaction)” value in series [1] was “A (A: a % remaining rate of 75% or more)”.

On to `O=S(=O)(CCO)c1ccc(-c2nccs2)c2oc(N3CC4CC(C3)N4)nc12` [Example 350, 2-((2-(3,6-Diazabicyclo[3.1.1]heptan-3-yl)-7-(thiazol-2-yl)benzo[d]oxazol-4-yl)sulfonyl)ethan-1-ol], for which the IC50 in the series with PDE4 is < 100 nM. The “Residual ratio (% remaining for 30-minute reaction)” value in series [1] is “A (A: a % remaining rate of 75% or more)”.

On to `CC(C)(O)C(F)(F)Oc1ccc(-c2ncccn2)c2oc(N3CC4CCC(C3)N4)nc12` [Example 330, 1-((2-(3,8-Diazabicyclo[3.2.1]octan-3-yl)-7-(pyrimidin-2-yl)benzo[d]oxazol-4-yl)oxy)-1,1-difluoro-2-methylpropan-2-ol], for which the IC50 in the series with PDE4 is < 100 nM. For the same compound, the “Residual ratio (% remaining for 30-minute reaction)” value in series [1] was “A (A: a % remaining rate of 75% or more)”.

For the compound `O=S(=O)(NCCO)c1ccc(-c2nccs2)c2oc(N3CC4CC(C3)N4)nc12` [Example 385, 2-(3,6-Diazabicyclo[3.1.1]heptan-3-yl)-N-(2-hydroxyethyl)-7-(thiazol-2-yl)benzo[d]oxazole-4-sulfonamide], the IC50 in the series with PDE4 is < 100 nM. Besides, the “Residual ratio (% remaining for 30-minute reaction)” value in series [1] is recorded as “A (A: a % remaining rate of 75% or more)”.
